{"source": "patent US20260325464A1", "about": "“COMPOSITIONS FOR MODULATING THE EXPRESSION OF AQUAPORINS IN NEURODEGENERATIVE DISORDERS” (priority 2023, published 2026)", "key": {"Alzheimer's disease": {"tested_on": "Alzheimer's disease", "experiment": "Novel object recognition (NOR) test in rats with AlCl3-induced Alzheimer's disease", "type": "in vivo, rat", "settings": "for % Recognition Index: p.o. + AlCl3 (100 mg/kg, i.p.), NOR at 15th day, Mean ± SEM, n = 6", "method": "Novel object recognition (NOR)—Novel object recognition (NOR)—This test was performed as per reported protocol (Antunes M, Biala G. The novel object recognition memory: neurobiology, test procedure, and its modifications. Cognit. Process. 2012:13, 93-110). During the retrieval phase, the animal was allowed to explore the field for 10 min. The hippocampal functions were assessed through the recognition indices, which were measured according to the time spent by the animals to explore the familiar and new objects.\nThe test is a relatively fast and efficient means for testing learning and memory in an animal model. The test relies on only three sessions: one habituation session, one training session, and one test session and relies on rodents' natural proclivity for exploring novelty. This is a relatively low-stress, efficient test for memory in an animal model, and is appropriate for the detection of neuropsychological changes after the administration of test drugs (Lupetow L, Novel Object Recognition Test for the Investigation of Learning and Memory in Mice, J Vis Exp. 2017; (126): 55718)."}, "BDNF": {"tested_on": "BDNF", "experiment": "BDNF level in brain homogenate (ELISA), AlCl3 Alzheimer's model", "type": "in vivo, rat", "settings": "for BDNF: p.o. + AlCl3 (100 mg/kg, i.p.), brain homogenate, Mean ± SEM, n = 6", "text": "Brain-derived neurotrophic factors (BDNFs) play an important role in maintaining synaptic plasticity in learning and memory. Depletion of BDNF has been linked with Aβ accumulation, tau phosphorylation, neuroinflammation and neuronal apoptosis. Considering AD as a synaptic disorder, BDNF has attracted increasing attention as a potential diagnostic biomarker and a therapeutical molecule for AD. In the current study, BDNF levels were determiner using ELISA kit (Krishgen Biosystems, India)."}, "Apolipoprotein E": {"tested_on": "Apolipoprotein E", "experiment": "Apolipoprotein E level in plasma (ELISA), AlCl3 Alzheimer's model", "type": "in vivo, rat", "settings": "for Apolipoprotein E: p.o. + AlCl3 (100 mg/kg, i.p.), plasma, Mean ± SEM, n = 6", "text": "The levels of Tau, β-amyloid (1-42) and Apolipoprotein E were estimated. using ELISA kit (Krishgen Biosystems, India). All the protein biomarkers of AD were elevated in the AD control group."}, "IL-1β": {"tested_on": "IL-1β", "experiment": "Inflammatory marker IL-1β (ELISA), AlCl3 Alzheimer's model", "type": "in vivo, rat", "settings": "for IL-1β: p.o. + AlCl3 (100 mg/kg, i.p.), n = 6", "text": "The inflammatory markers Fibrinogen, IL-1β were estimated using ELISA kit (Krishgen Biosystems, India)."}, "Dopamine": {"tested_on": "Dopamine", "experiment": "Dopamine in brain (kinetic spectrophotometric), reserpine Parkinson's model", "type": "in vivo, rat", "settings": "for Dopamine: p.o. + Reserpine (4 mg/kg, s.c.), brain, Mean ± SEM, n = 6", "text": "(§1) The induction of Parkinson's disease and measurement of other parameters were done as per the reported protocol (Santos et al., Cognitive, motor and tyrosine hydroxylase temporal impairment in a model of parkinsonism induced by reserpine. Behav Brain Res. 2013; 253:68-77 and Shishehbore et al. A novel kinetic spectrophotometric method for the determination of dopamine in biological and pharmaceutical samples. J Chem. 2013; 2013:1-6). Induction of Parkinson's disease was done by administering Resperine, which inhibits the monoamine vesicular transporters, thus decreasing the levels of monoamine neurotransmitters in the brain. Following pretreatment for 14 days with Gingerenone A, the rat groups received subcutaneous injections of reserpine (4 mg/kg) for the final five days of the treatment regimen. Resperine (5 mg) was dissolved in 1 ml of 1% acetic acid and then diluted tenfold with distilled water to achieve a final concentration of 500 μg/ml. The normal control group received saline with 1% acetic acid for 14 days, administered from day 10 to day 14. Thirty minutes following the administration of reserpine on the 14th day, behavioural assessments were conducted using the Open Field test, Y Maze, and Catalepsy tests to evaluate changes. […] Upon completion of the study, brains were harvested for biochemical analyses and histopathological studies. The experimental group is depicted in table 10.\nDopamine—Studies have shown that symptoms of Parkinson's develop in patients with an 80 percent or greater loss of dopamine-producing cells in the substantia nigra. Normally, dopamine operates in a delicate balance with other neurotransmitters to help coordinate the millions of nerve and muscle cells involved in movement. Neurons of the substantia nigra communicate with neurons of the basal ganglia by liberating the neurotransmitter dopamine (DA). Such an interaction at the biochemical level is responsible for the fine tuning of the movements. The proposed method for the estimation of dopamine is based on inhibitory effect of dopamine on the oxidation of thionine by bromate in acidic media. The change in absorbance was recorded spectrophotometrically at 601 nm (Shishehbore et al., Novel Kinetic Spectrophotometric Method for the Determination of Dopamine in Biological and Pharmaceutical Samples. 2013. Article ID 819460, https://doi.org/10.1155/2013/819460)."}, "substantia nigra": {"tested_on": "substantia nigra", "experiment": "Brain histopathology of substantia nigra, reserpine Parkinson's model", "type": "in vivo, rat", "text": "The brain histopathology was done for all the experimental groups. The brain tissue was fixed in 10% buffered neutral formalin solution. The tissue was embedded in paraffin, sectioned at […] stained with hematoxylin and eosin (H&E). The sections were examined under light microscope to study the architecture of the brain tissue, and then photomicrographs were taken (Fischer A H, Jacobson K A, Rose J, Zeller R. Hematoxylin and eosin staining of tissue and cell sections. CSH Protoc. 2008:1;pdb.prot4986. doi: 10.1101/pdb.prot4986).\nas §1"}, "[1]": {"tested_on": "acetylcholinesterase (AChE)", "settings": "for Ach E: p.o. + AlCl3 (100 mg/kg, i.p.), brain homogenate, Mean ± SEM, n = 6", "procedure": "At the conclusion of the study, the rats were euthanized by decapitation, and their brains were swiftly removed and placed in ice-cold saline solution. The cortex and hippocampus were carefully isolated and submerged in an ice-cold water container to halt enzymatic reactions. The levels of acetylcholinesterase (AChE) and butyrylcholinesterase (BChE) in the cortex and hippocampus regions of the brain were determined using Ellman's method from 1961. Approximately 100 mg of the isolated brain sections were weighed and homogenized in phosphate buffer (0.1 M, pH 8.0). To 0.4 mL of the homogenate, the following components were added: 2.6 mL of phosphate buffer (0.1 M, pH 8.0), 100 μL of 10 mM 5,5-dithio-bis-(2-nitrobenzoic acid) (DTNB), and 20 μL of acetylthiocholine iodide (AChI) solution (0.075 M). The mixture was thoroughly mixed. The absorbance was then measured at 412 nm for a duration of 5 minutes.\nn=6, All the values were expressed in Mean±SEM (n=6). The statistical analysis was carried out using one way ANOVA."}}, "note": "Where two headings read alike, the source gives them in different places. Marks after values point to notes of the source that are not given here.", "data": [{"compound": "COc1cc(CC/C=C/C(=O)CCc2ccc(O)c(OC)c2)ccc1O", "note": "[Gingerenone A]", "values": [{"measurement": "% Recognition Index", "setting": "Alzheimer's disease; 5 mg/kg", "value": "56.23 ± 2.35", "unit": "%"}, {"measurement": "% Recognition Index", "setting": "Alzheimer's disease; 10 mg/kg", "value": "65.54 ± 2.78", "unit": "%"}, {"measurement": "% Recognition Index", "setting": "Alzheimer's disease; 20 mg/kg", "value": "66.53 ± 3.20", "unit": "%"}, {"measurement": "recognition index (in words)", "setting": "Alzheimer's disease; AlCl3 model, Table 2", "value": "effectively improved the scores"}, {"measurement": "BDNF", "setting": "BDNF; 5 mg/kg", "value": "29.36 ± 1.09", "unit": "pg/mL"}, {"measurement": "BDNF", "setting": "BDNF; 10 mg/kg", "value": "36.07 ± 1.54", "unit": "pg/mL"}, {"measurement": "BDNF", "setting": "BDNF; 20 mg/kg", "value": "38.76 ± 2.05", "unit": "pg/mL"}, {"measurement": "levels of BDNF (in words)", "setting": "BDNF; AlCl3 model, Table 6", "value": "significantly increased the levels of BDNF"}, {"measurement": "Apolipoprotein E", "setting": "Apolipoprotein E; 5 mg/kg", "value": "7.47 ± 0.054", "unit": "ng/mL"}, {"measurement": "Apolipoprotein E", "setting": "Apolipoprotein E; 10 mg/kg", "value": "7.08 ± 0.076", "unit": "ng/mL"}, {"measurement": "Apolipoprotein E", "setting": "Apolipoprotein E; 20 mg/kg", "value": "6.84 ± 0.034", "unit": "ng/mL"}, {"measurement": "levels of Apolipoprotein E (in words)", "setting": "Apolipoprotein E; AlCl3 model, Table 8", "value": "significantly reduced"}, {"measurement": "IL-1β", "setting": "IL-1β; 5 mg/kg", "value": 97.92, "unit": "pg/mL"}, {"measurement": "IL-1β", "setting": "IL-1β; 10 mg/kg", "value": "84.90* pg/ml"}, {"measurement": "IL-1β", "setting": "IL-1β; 20 mg/kg", "value": "80.65** pg/ml"}, {"measurement": "IL-1β (in words)", "setting": "IL-1β; AlCl3 model, Table 9", "value": "significantly reduced"}, {"measurement": "Dopamine", "setting": "Dopamine; 5 mg/kg", "value": "0.124 ± 0.007", "unit": "µg/mL"}, {"measurement": "Dopamine", "setting": "Dopamine; 10 mg/kg", "value": "0.142 ± 0.011", "unit": "µg/mL"}, {"measurement": "Dopamine", "setting": "Dopamine; 20 mg/kg", "value": "0.141 ± 0.011", "unit": "µg/mL"}, {"measurement": "dopamine levels (in words)", "setting": "Dopamine; reserpine model, Table 14", "value": "increased"}, {"measurement": "histopathology of substantia nigra", "setting": "substantia nigra; 5 mg/kg, FIG. 12", "value": "both normal [FIG. 12A—Arrow] and degenerative neuronal cells having dark nucleus with mild basophilic cytoplasm [FIG. 12B—Arrow] and focal reactive microgliosis. Scant inflammation was noted at places. The neuropils had focal vacuoles"}, {"measurement": "histopathology of substantia nigra", "setting": "substantia nigra; 10 mg/kg, FIG. 13", "value": "both normal [FIG. 13A—Arrow] and degenerative neuronal cells having variable darkly stained nucleus [FIG. 13B—Arrow] with mild basophilic cytoplasm and scant inflammation"}, {"measurement": "histopathology of substantia nigra", "setting": "substantia nigra; 20 mg/kg, FIG. 14", "value": "both normal [FIG. 14A—Arrow] and degenerative neuronal cells having variable darkly stained nucleus [14B—Arrow] with mild basophilic cytoplasm and scant inflammation"}, {"measurement": "Ach E", "setting": "[1]; 5 mg/kg", "value": "11.76 ± 0.93 10^−6 /mol/g of tissue"}, {"measurement": "Ach E", "setting": "[1]; 10 mg/kg", "value": "8.77 ± 0.49** 10^−6 /mol/g of tissue"}, {"measurement": "Ach E", "setting": "[1]; 20 mg/kg", "value": "6.87 ± 0.34** 10^−6 /mol/g of tissue"}, {"measurement": "Acetyl cholinesterase (in words)", "setting": "[1]; AlCl3 model, Table 5", "value": "significantly inhibited Acetyl cholinesterase"}]}]}
